Experimental data published in US7358250B2, “Pyrrolo[2,3-d]pyrimidines that modulate ACK1 activity” (Amgen Inc., priority 2004, dated 2008).

What was measured:
LCK = target: T1, LCK (Homo sapiens, UniProt P06239); experiment: LCK-Homogeneous Time Resolved Fluorescent (HTRF) Kinase Assay; assay type: biochemical; conditions: LCK KD GST (225-509)
T1 construct: 15 μL of LCK KD GST (225-509) for a final volume of 40 μL; GST
Experimental: The LCK HTRF assay begins with LCK in the presence of ATP phosphorylating the biotinylated peptide Gastrin. The reaction incubates for 90 min. To quench the assay detection reagents are added which both stop the reaction by diluting out the enzyme and chelating the metals due to the presence of EDTA. Once the detection reagents are added the assay incubates for 30 min to allow for equilibration of the detection reagents.
The final concentration of gastrin is 1.2 μM. The final concentration of ATP is 0.5 μM (Km app=[…]) and the final concentration of LCK is […]. Buffer conditions are as follows: 50 mM HEPES pH 7.5, 50 mM NaCl, 20 mM MgCl, 5 mM MnCl, 2 mM DTT, 0.05% BSA.
The assay is quenched and stopped with 160 μL of detection reagent. Detection reagents are as follows: Buffer made of 50 mM Tris, pH 7.5, 100 mM NaCl, 3 mM EDTA, 0.05% BSA, 0.1% Tween20. Added to this buffer prior to reading is Steptavidin allophycocyanin (SA-APC) at a final conc in the assay of 0.0004 mg/mL, and europilated anti-phosphotyrosine Ab (Eu-anti-PY) at a final conc of 0.025 nM.
The assay plate is read in either a Discovery or a RubyStar. The eu-anti-PY is excited at 320 nm and emits at 615 nm to excite the SA-APC which in turn emits at 655 nm. The ratio of SA-APC at 655 nm (excited due to close proximity to the Eu-anti-PY because of phosphorylation of the peptide) to free Eu-anti-PY at 615 nm will give substrate phosphorylation.

ACK1 = target: T2, ACK1 (Homo sapiens, UniProt Q07912); experiment: ACK1 Enzymatic Assay; assay type: biochemical; conditions: 5 μM ATP, ELISA phosphotyrosine readout
T2 construct: a fusion of an N-terminal (His)6 Tag with amino acids 117 to 489 of ACK1; (His)6 (N); made in house; host or cells: baculovirus infected Hi-5 insect cells
T2 sequence (Q07912 117-489): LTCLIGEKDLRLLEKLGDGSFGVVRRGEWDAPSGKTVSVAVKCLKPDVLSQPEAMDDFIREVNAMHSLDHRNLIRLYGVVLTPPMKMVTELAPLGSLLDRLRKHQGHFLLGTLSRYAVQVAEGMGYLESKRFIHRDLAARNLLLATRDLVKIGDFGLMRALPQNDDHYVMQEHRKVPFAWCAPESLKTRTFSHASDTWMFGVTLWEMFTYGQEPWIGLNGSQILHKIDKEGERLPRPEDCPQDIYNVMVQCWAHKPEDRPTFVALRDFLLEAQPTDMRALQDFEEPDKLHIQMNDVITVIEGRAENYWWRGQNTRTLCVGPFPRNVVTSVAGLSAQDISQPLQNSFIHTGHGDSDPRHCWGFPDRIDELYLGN
Experimental: IC50 values of inventive compounds may be assessed as follows. […] The substrate of for the reaction is ACK1 itself (autophosphorylation) and poly-Glutamic acid-Tyrosine (PGT (4:1), Sigma catalog #PO275). The PGT is coated to Nunc 96 well plates at 80 μg/mL overnight at 4° C. […] Test compounds are added in 10 μL DMSO, and the reaction is started by addition of 10 μL kinase in assay buffer. The reaction proceeds 2 h at room temperature. Next the plates are washed four times, and the level of tyrosine phosphorylation in a given well is quantified by standard ELISA assay utilizing a phosphotyrosine antibody (PY20, Pierce).

C8 cells = experiment: ACK1 Cell Based Assay, test (C8) cell line; conditions: 0.125% FCS, 20 to 24 h, cell viability (Cytotox One kit)
Experimental: The ACK1 cell based assay is designed to find inhibitors of ACK1 kinase activity which would be prime candidates for the development of anticancer drugs. […] This dependency was confirmed utilizing ACK1 specific siRNAs.
For this assay, test (C8) and control (HeLa) cell lines are seeded in 96 well tissue culture plates (BD Falcon) at a density of 2 to 4×10^4 in DMEM/F12 (C8) or DMEM (HeLa) with 0.125% FCS in the presence of ACK1 inhibitors (final DMSO concentration is 0.5%, all tissue culture media are from Cellgro). After 20 to 24 h incubation at 37° C. and 5% CO2, cell viability is determined using the Cytotox One kit (Promega) according to the manufacturer's instructions.

T1 sequence (P06239 225-509): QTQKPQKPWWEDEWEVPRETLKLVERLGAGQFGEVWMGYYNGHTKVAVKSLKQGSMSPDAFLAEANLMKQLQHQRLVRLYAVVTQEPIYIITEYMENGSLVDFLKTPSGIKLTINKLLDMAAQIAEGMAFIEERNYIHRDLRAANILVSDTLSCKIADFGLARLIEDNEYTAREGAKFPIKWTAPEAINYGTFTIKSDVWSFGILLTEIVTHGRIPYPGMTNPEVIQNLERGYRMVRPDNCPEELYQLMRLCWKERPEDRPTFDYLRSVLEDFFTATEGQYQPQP

Structure (SMILES): c1ccc(-c2[nH]c3ncnc(NCC4CCCS4)c3c2-c2ccccc2)cc1 (stereo not drawn) [Example 3, (5,6-Diphenyl-7H-pyrrolo[2,3-d]pyrimidin-4-yl)-(tetrahydrothiophen-2-ylmethyl)-amine]
- Ki (LCK): < 10 nM
- Ki (ACK1): 10 to 100 nM
- IC50 (C8 cells): > 100 nM

Structure (SMILES): c1ccc(-c2[nH]c3ncnc(NCC4CCCCO4)c3c2-c2ccccc2)cc1 (stereo not drawn) [Example 4, (5,6-Diphenyl-7H-pyrrolo[2,3-d]pyrimidin-4-yl)-(tetrahydropyran-2-ylmethyl) amine]
- Ki (LCK): < 10 nM
- Ki (ACK1): 10 to 100 nM
- IC50 (C8 cells): > 100 nM

Structure (SMILES): CNS(=O)(=O)c1ccc(-c2[nH]c3ncnc(NCC4CCCO4)c3c2-c2ccccc2)cc1 (stereo not drawn) [Example 6, N-Methyl-4-{5-phenyl-4-[(tetrahydrofuran-2-ylmethyl)-amino]-7H-pyrrolo[2,3-d]pyrimidin-6-yl}-benzenesulfonamide]
- Ki (LCK): < 10 nM
- Ki (ACK1): < 10 nM
- IC50 (C8 cells): 10 to 100 nM

Structure (SMILES): CNC(=O)c1ccc(-c2[nH]c3ncnc(NC[C@@H]4CCCO4)c3c2-c2ccccc2)cc1 [Example 26, N-Methyl-4-{5-phenyl-4-[(tetrahydrofuran-2-ylmethyl)-amino]-7H-pyrrolo[2,3-d]pyrimidin-6-yl}-benzamide]
- Ki (LCK): < 10 nM
- Ki (ACK1): < 10 nM
- IC50 (C8 cells): 10 to 100 nM

Structure (SMILES): O=S(=O)(c1ccc(-c2[nH]c3ncnc(NC[C@@H]4CCCO4)c3c2-c2ccccc2)cc1)N(CCO)CCO [Example 19, N,N-Bis-(2-hydroxyethyl)-4-{5-phenyl-4-[(tetrahydro-furan-2-ylmethyl)-amino]-7H-pyrrolo[2,3-d]pyrimidin-6-yl}-benzenesulfonamide]
- Ki (LCK): < 10 nM
- Ki (ACK1): < 10 nM
- IC50 (C8 cells): > 100 nM

Structure (SMILES): CN(C)CCOc1ccc(-c2[nH]c3ncnc(NCC4SCCS4)c3c2-c2ccccc2)cc1 [Example 33, {6-[4-(2-Dimethylaminoethoxy)-phenyl]-5-phenyl-7H-pyrrolo[2,3-d]pyrimidin-4-yl}-[1,3]dithiolan-2-ylmethyl-amine]
- Ki (LCK): < 10 nM
- IC50 (C8 cells): < 10 nM

Structure (SMILES): CN1CCCC1CCOc1ccc(-c2[nH]c3ncnc(NCC4CCCO4)c3c2-c2ccccc2)cc1 (stereo not drawn) [Example 24, (6-{4-[2-(1-Methyl-pyrrolidin-2-yl)-ethoxy]-phenyl}-5-phenyl-7H-pyrrolo[2,3-d]pyrimidin-4-yl)-(tetrahydrofuran-2-ylmethyl)-amine]
- Ki (LCK): 10 to 100 nM
- Ki (ACK1): 10 to 100 nM
- IC50 (C8 cells): > 100 nM

Structure (SMILES): N#CCOc1ccc(-c2[nH]c3ncnc(NC[C@@H]4CCCO4)c3c2-c2ccccc2)cc1 [Example 25, (4-{5-Phenyl-4-[(tetrahydrofuran-2-ylmethyl)-amino]-7H-pyrrolo[2,3-d]pyrimidin-6-yl}-phenoxy)-acetonitrile]
- Ki (LCK): 10 to 100 nM
- Ki (ACK1): < 10 nM
- IC50 (C8 cells): 10 to 100 nM

Structure (SMILES): CC(C)(C)OC(=O)CNS(=O)(=O)c1ccc(-c2[nH]c3ncnc(NCC4CCCO4)c3c2-c2ccccc2)cc1 (stereo not drawn) [Example 13, (4-{5-Phenyl-4-[(tetrahydrofuran-2-ylmethyl)-amino]-7H-pyrrolo[2,3-d]pyrimidin-6-yl}-benzenesulfonylamino)-acetic acid tert-butyl ester]
- Ki (LCK): 10 to 100 nM
- Ki (ACK1): 10 to 100 nM
- IC50 (C8 cells): > 100 nM

Structure (SMILES): CN(C)CCOc1ccc(-c2[nH]c3ncnc(NC[C@H]4CCC[C@H]4O)c3c2-c2ccccc2)cc1 (relative stereo) [Example 37, cis-2-({6-[4-(2-Dimethylamino-ethoxy)-phenyl]-5-phenyl-7H-pyrrolo[2,3-d]pyrimidin-4-ylamino}-methyl)-cyclopentanol]
- Ki (LCK): < 10 nM
- IC50 (C8 cells): > 100 nM

Structure (SMILES): CN(C)CCOc1ccc(-c2[nH]c3ncnc(NC[C@@H]4CC[C@H]4O)c3c2-c2ccccc2)cc1 (mixture of isomers) [Example 36, trans/cis-2-({6-[4-(2-Dimethylamino-ethoxy)-phenyl]-5-phenyl-7H-pyrrolo[2,3-d]pyrimidin-4-ylamino}-methyl)-cyclobutanol]
- Ki (ACK1): 10 to 100 nM
- IC50 (C8 cells): > 100 nM
